Assay [1] concerns the target T1, β5 subunit of the human constitutive proteasome (CPS) (Homo sapiens, UniProt P28074).
T1 construct: purchased Boston Biochem E-360
The assay is described as follows: β5 inhibition assay, human constitutive proteasome (Suc-LLVY-AMC). Type of assay: biochemical. To be noted: IC50 class, Suc-LLVY-AMC substrate. The method, then:
The enzymatic activity of the β5 subunit of the human constitutive proteasome (CPS) is analyzed. In another assay, which differs from the assay of the human constitutive proteasome only in using the human immunoproteasome (IPS) the enzymatic activity of the β5 subunit of the human immunoproteasome (IPS) is analyzed. […] Inhibition is indicated as IC50 [nM] (“-”=not measured).

Assay [2] has as its system A549 (human lung carcinoma cell line). The assay can be described thus: Glo assay of A549 cells (Table 3; ProteasomeGlo plating scheme). Type of assay: cell-based. To be noted: Homo sapiens; A549 cells; read-out: PGLo A549. Summed up: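 After acoustic compound transfer, plates incubate 105 min (37° C., 5% CO2). Proteasome-Glo reagent containing Suc-LLVY-Glo substrate is added, plates are shaken, then luminescence is measured after 10-15 min to derive IC50 [nM]. Staurosporine and DMSO serve as controls.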

Assay [3] has as its target T2, β5 subunit of the human immunoproteasome (IPS) (Homo sapiens, UniProt P28062).
T2 construct: purchased Boston Biochem E-370
The assay can be described thus: β5 inhibition assay, human immunoproteasome (Suc-LLVY-AMC). Type of assay: biochemical. To be noted: IC50 class, Suc-LLVY-AMC substrate. Summed up:
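β5 activity is read as liberated AMC fluorescence (355/460 nm) after 4 h dark reaction at RT with 22.6 μM Suc-LLVY-AMC, stopped by 1 μM bortezomib. Beforehand, 1 nM human IPS and compound sat 10 min at RT in HEPES pH 7.5 buffer containing NaCl, 0.02% SDS and DTT.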

Assay [4] relates to MM1 S (B lymphoblast cell line). The assay is described as follows: 48 hr CTG viability assay, MM1S. Type of assay: cell-based. Conditions: Homo sapiens, 48 hr CTG, read-out: MM1S IC50. Summed up: (§1)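 Growth inhibition by compound over 48 h; IC50 (nM) derived from duplicate CellTiter-Glo luminescence readings across 0.0015–10 uM.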
Assay [5] concerns Hs 746T (human gastric carcinoma cell line). The assay can be described thus: 48 hr CTG viability assay, Hs 746T. Type of assay: cell-based. To be noted: Hs746T, 48 hr CTG, read-out: Hs 746T IC50. Summed up:
as §1

Assay [6] relates to RPMI 8226 (B lymphocyte cell line, multiple myeloma). The assay is described as follows: 48 hr CTG viability assay, RPMI 8226. Type of assay: cell-based. To be noted: Homo sapiens, RPMI-8226; 48 hr CTG; read-out: RPMI-8226 IC50. Summed up: as §1

As for `Cc1ccc2cc1CNC(=O)[C@H](CCc1ccccc1)NC(=O)[C@@H](NC(=O)[C@@H](N)CC(=O)O)CC(=O)N1CCCC(CCO2)C1` (stereo partly drawn) [Compound 719, (3S)-3-amino-4-(((9S,12S)-5^4-methyl-8,11,14-trioxo-9-phenethyl-4-oxa-7,10-diaza-1(3,1)-piperidina-5(1,3)-benzenacyclotetradecaphane-12-yl)amino)-4-oxobutanoic acid], the IC50 in assay [1] is < 100 nM; in assay [2], < 100 nM; in assay [3] it was < 100 nM; in assay [4] it was 100 to 500 nM; in assay [5], 500 to 1000 nM; in assay [6] it was 100 to 500 nM.
Consider `COc1ccccc1COCCC(=O)N[C@H]1CC(=O)N2CCCC(CCOc3ccc(C)c(c3)CNC(=O)[C@H](CCc3ccccc3)NC1=O)C2` (stereo partly drawn) [Compound 619, 3-((2-methoxybenzyl)oxy)-N-((9S,12S)-5^4-methyl-8,11,14-trioxo-9-phenethyl-4-oxa-7,10-diaza-1(3,1)-piperidina-5(1,3)-benzenacyclotetradecaphane-12-yl)propanamide], for which the IC50 in assay [1], in assay [2], in assay [3], in assay [4], in assay [5] and in assay [6] was < 100 nM in each case.
Regarding `Cc1ccc2cc1CNC(=O)[C@H](CCc1ccccc1)NC(=O)[C@@H](NC(=O)C1CC3(CNC3)C1)CC(=O)N1CCCC(CCO2)C1` (stereo partly drawn) [Compound 721, N-((9S,12S)-5^4-methyl-8,11,14-trioxo-9-phenethyl-4-oxa-7,10-diaza-1(3,1)-piperidina-5(1,3)-benzenacyclotetradecaphane-12-yl)-2-azaspiro[3.3]heptane-6-carboxamide], the IC50 in assay [1] is < 100 nM; in assay [2], 100 to 500 nM; in assay [3], < 100 nM; in assay [4], < 100 nM; in assay [5] it was < 100 nM; in assay [6], 100 to 500 nM.
Turning to `COCCOCCC(=O)N[C@H]1CC(=O)N2CCCC(CCOc3ccc(C)c(c3)CNC(=O)[C@H](CCc3ccccc3)NC1=O)C2` (stereo partly drawn) [Compound 596, 3-(2-methoxyethoxy)-N-((9S,12S)-5^4-methyl-8,11,14-trioxo-9-phenethyl-4-oxa-7,10-diaza-1(3,1)-piperidina-5(1,3)-benzenacyclotetradecaphane-12-yl)propanamide], the IC50 in assay [1], in assay [2], in assay [3], in assay [4], in assay [5] and in assay [6] was < 100 nM each time.
As to `Cc1ccc2cc1CNC(=O)[C@H](CCc1ccccc1)NC(=O)[C@@H](NC(=O)CCOCCCc1ccccc1)CC(=O)N1CCCC(CCO2)C1` (stereo partly drawn) [Compound 612, N-((9S,12S)-5^4-methyl-8,11,14-trioxo-9-phenethyl-4-oxa-7,10-diaza-1(3,1)-piperidina-5(1,3)-benzenacyclotetradecaphane-12-yl)-3-(3-phenylpropoxy)propanamide], the IC50 in assay [1], in assay [2], in assay [3], in assay [4], in assay [5] and in assay [6] was < 100 nM throughout.
`Cc1ccc2cc1CNC(=O)[C@H](CCc1ccccc1)NC(=O)[C@@H](NC(=O)CCOCCC1CC1)CC(=O)N1CCCC(CCO2)C1` (stereo partly drawn) [Compound 630, 3-(2-cyclopropylethoxy)-N-((9S,12S)-5^4-methyl-8,11,14-trioxo-9-phenethyl-4-oxa-7,10-diaza-1(3,1)-piperidina-5(1,3)-benzenacyclotetradecaphane-12-yl)propanamide]: the IC50 in assay [1], in assay [2], in assay [3], in assay [4], in assay [5] and in assay [6] was < 100 nM in each case.
As to `Cc1ccc2cc1CNC(=O)[C@H](CCc1ccccc1)NC(=O)[C@@H](NC(=O)CCN1CCC3(CC1)COC3)CC(=O)N1CCCC(CCO2)C1` (stereo partly drawn) [Compound 641, N-((9S,12S)-5^4-methyl-8,11,14-trioxo-9-phenethyl-4-oxa-7,10-diaza-1(3,1)-piperidina-5(1,3)-benzenacyclotetradecaphane-12-yl)-3-(2-oxa-7-azaspiro[3.5]nonan-7-yl)propanamide], the IC50 in assay [1], in assay [2], in assay [3], in assay [4], in assay [5] and in assay [6] was < 100 nM throughout.
For the molecule `Cc1ccc2cc1CNC(=O)[C@H](CCc1ccccc1)NC(=O)[C@@H](NC(=O)CCNCCC1CCC1)CC(=O)N1CCCC(CCO2)C1` (stereo partly drawn) [Compound 693, 3-((2-cyclobutylethyl)amino)-N-((9S,12S)-5^4-methyl-8,11,14-trioxo-9-phenethyl-4-oxa-7,10-diaza-1(3,1)-piperidina-5(1,3)-benzenacyclotetradecaphane-12-yl)propanamide], the IC50 in assay [1], in assay [2], in assay [3], in assay [4], in assay [5] and in assay [6] was < 100 nM in each case.
Turning to `Cc1ccc2cc1CNC(=O)[C@H](CCc1ccccc1)NC(=O)[C@@H](NC(=O)CCOC1CC3(COC3)C1)CC(=O)N1CCCC(CCO2)C1` (stereo partly drawn) [Compound 590, 3-((2-oxaspiro[3.3]heptan-6-yl)oxy)-N-((9S,12S)-5^4-methyl-8,11,14-trioxo-9-phenethyl-4-oxa-7,10-diaza-1(3,1)-piperidina-5(1,3)-benzenacyclotetradecaphane-12-yl)propanamide], the IC50 in assay [1], in assay [2], in assay [3], in assay [4], in assay [5] and in assay [6] was < 100 nM each time.
Consider `Cc1ccc2cc1CNC(=O)[C@H](CCc1ccccc1)NC(=O)[C@@H](NC(=O)CCOCC1CCCC1)CC(=O)N1CCCC(CCO2)C1` (stereo partly drawn) [Compound 625, 3-(cyclopentylmethoxy)-N-((9S,12S)-5^4-methyl-8,11,14-trioxo-9-phenethyl-4-oxa-7,10-diaza-1(3,1)-piperidina-5(1,3)-benzenacyclotetradecaphane-12-yl)propanamide], for which the IC50 in assay [1], in assay [2], in assay [3], in assay [4], in assay [5] and in assay [6] was < 100 nM each time.
For the molecule `COc1cccc(COCCC(=O)N[C@H]2CC(=O)N3CCCC(CCOc4ccc(C)c(c4)CNC(=O)[C@H](CCc4ccccc4)NC2=O)C3)c1` (stereo partly drawn) [Compound 585, 3-((3-methoxybenzyl)oxy)-N-((9S,12S)-5^4-methyl-8,11,14-trioxo-9-phenethyl-4-oxa-7,10-diaza-1(3,1)-piperidina-5(1,3)-benzenacyclotetradecaphane-12-yl)propanamide], the IC50 in assay [1], in assay [2], in assay [3], in assay [4], in assay [5] and in assay [6] was < 100 nM in each case.
